Assay results: patent US6008041A, “Bovine dipeptidylaminopeptidase 1” (Eli Lilly and Company, priority 1997, dated 1999)
Peptide text beside a SMILES is read from it. * marks the point of attachment. pNA = O=[N+]([O-])c1ccc(N*)cc1; βNA = c1ccc2cc(N*)ccc2c1; Cbz = O=C(OCc1ccccc1)*

Columns and labels:
bDAP 1 [1] = experiment: Cleavage of RRBNA / Z-RRBNA (fluorescence); type: biochemical, bovine; conditions: for ability of the enzyme to cleave the substrate: 0.25 mM substrate, pH 3.5 or pH 5.0, about 15 milliunit/ml enzyme
Procedure: (§1) About 0.25 mM RRBNA or 0.25 mM Z-RRBNA was prepared in either 100 mM acetic acid, pH 3.5, or 100 mM citrate buffer, pH 5.0. To 2 ml of substrate was added bDAP 1 or bovine DAP-I (about 15 milliunit/ml solution). Rates of cleavage (monitoring fluorescence increase at 410 nm with excitation at 340 nm) were monitored. […] The pH optimum for cleavage of RRBNA was probed by monitoring the rate of RRBNA cleavage using a buffer system consisting of 50 mM acetic acid and 50 mM citrate. Various pHs were achieved using HCl or NaOH and 1.5 ml volumes were made 2.0 with 0.5 ml of a 1 mM stock solution of RRBNA (final concentration of about 0.25 mM). bDAP 1 was added (to about 15 mU/ml) and the rates of cleavage were determined.

Bovine DAP-I = Bovine DAP-I (Bos taurus, UniProt Q3ZCJ8); experiment: Cleavage of RRBNA / Z-RRBNA (fluorescence); type: biochemical; conditions: 0.25 mM substrate, pH 3.5 or pH 5.0, about 15 milliunit/ml enzyme
Sequence of Bovine DAP-I (Q3ZCJ8 25-134): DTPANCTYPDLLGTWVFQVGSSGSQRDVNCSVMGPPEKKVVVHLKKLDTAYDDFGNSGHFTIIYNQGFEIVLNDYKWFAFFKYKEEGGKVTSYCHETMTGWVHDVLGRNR
Sequence of Bovine DAP-I (Q3ZCJ8 231-463): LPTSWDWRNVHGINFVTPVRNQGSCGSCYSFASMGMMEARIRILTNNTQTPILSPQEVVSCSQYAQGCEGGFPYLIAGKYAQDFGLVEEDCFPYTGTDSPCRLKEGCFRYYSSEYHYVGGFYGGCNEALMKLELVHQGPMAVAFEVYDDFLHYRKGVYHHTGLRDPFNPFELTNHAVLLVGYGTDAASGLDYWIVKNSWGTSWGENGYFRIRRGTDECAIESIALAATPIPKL
Procedure: as §1

bDAP 1 [2] = experiment: Inhibition of GFpNA cleavage by sulfhydryl modifying agents; type: biochemical, bovine; conditions: 0.5, 5.0 or 50 mM inhibitor, 15 minutes at room temperature, pH 7; then 4 mM GFpNA pH 3.5, 37° C.
Procedure: (§2) After purification or storage, bDAP 1 enzymatic activity was usually monitored by following the cleavage of the chromogenic substrate GFpNA. Typically the assay was performed by diluting the enzyme at least 11 fold into 1.0 ml of 4 mM GFpNA in 0.05M acetic acid adjusted to pH 3.5. The rate of cleavage of Gly-Phe dipeptide was monitored at 37° C. by measuring the increase in absorbance at 405 nm. One unit of activity leads to a 0.90 OD change per minute under these conditions. Unit/ml estimates can be made assuming an extinction coefficient for free p-nitroanilide (pNA) of 9.9 mM-1 cm-1 at 405 nm.
(§3) The inhibition profile of bDAP 1 toward the substrate GFpNA was compared to that of bovine spleen DAP-I using iodoacetamide and potassium tetrathionate, sulfihydryl modifying agents known to inhibit the activity of bovine spleen DAP-I. Samples of bDAP 1 or bovine spleen DAP-I were incubated for 15 minutes at room temperature in final concentrations of 0, 0.5, 5.0 or 50 mM of either inhibitor at pH 7 in 100 mM Tris buffer. The incubated solutions were then diluted 21-fold with 4 mM GFpNA, pH 3.5. The rate of cleavage was monitored by measuring the increase in absorbance at 405 nm at 37° C. Bovine DAP-I's rate of cleavage of GFpNA was decreased more than 90% by the exposure to 5 mM iodoacetamide and was 95% inhibited by 5 mM potassium tetrathionate.

bovine spleen DAP-I = bovine spleen DAP-I (Bos taurus, UniProt Q3ZCJ8); experiment: as above; type: biochemical; conditions: 5 mM inhibitor, 15 minutes at room temperature, pH 7, 100 mM Tris; then diluted 21-fold with 4 mM GFpNA pH 3.5, 37° C., 405 nm; read-out: decrease of rate of cleavage of GFpNA (inhibition)
Sequence of bovine spleen DAP-I (Q3ZCJ8 25-134): as the sequence (Q3ZCJ8 25-134) above
Sequence of bovine spleen DAP-I (Q3ZCJ8 231-463): as the sequence (Q3ZCJ8 231-463) above
Procedure: as §2, §3

bDAP 1 [3] = experiment: pH dependence of GRpNA cleavage; type: biochemical, bovine; conditions: below pH 2.5 or above pH 5
Procedure: Four mM GRpNA was prepared in 50 mM acetic acid, 50 mM glycine buffer, pH 5. HCl or NaOH was used to achieve a variety of pHs, from 5.1 to 2.3. To 180 ul of the above pH buffered substrate was added 5 ul bDAP 1 (49 milliunits/ml final). The rate of increase of absorbance at 410 nm was monitored (using a plate-reader) and the rate of increase was compared with the pH of the reaction solution.

ability of the enzyme to cleave the substrate (bDAP 1 [1]) | ability of the enzyme to cleave the substrate (Bovine DAP-I) | Compound | inhibition of GFpNA cleavage (bDAP 1 [2]) | further results
able to effectively cleave | unable to cleave | N=C(N)NCCC[C@H](NC(=O)[C@@H](N)CCCNC(=N)N)C(=O)Nc1ccc2ccccc2c1 [RRBNA, Arg-Arg-β-naphthylamide] (H-Arg-Arg-βNA) |  | activity over the pH range probed (bDAP 1 [1]; pH 3.5 to pH 5.7): significant activity
 |  | O=S(=O)([O-])SSS(=O)(=O)[O-].[K+].[K+] [potassium tetrathionate] | no evidence of significant inhibition | 
unable to cleave | unable to cleave | N=C(N)NCCC[C@H](NC(=O)OCc1ccccc1)C(=O)N[C@@H](CCCNC(=N)N)C(=O)Nc1ccc2ccccc2c1 [Z-RRBNA, benzyloxycarbonyl-RRBNA] (Cbz-Arg-Arg-βNA) |  | 
 |  | NC(=O)CI [iodoacetamide] | no evidence of significant inhibition | inhibition at 5000 µM (bovine spleen DAP-I): > 90%
 |  | N=C(N)NCCC[C@H](NC(=O)CN)C(=O)Nc1ccc([N+](=O)[O-])cc1 [GRpNA, Gly-Arg-pNA] (H-Gly-Arg-pNA) |  | activity outside the optimum range (bDAP 1 [3]): little activity
